The data set is described as follows: Urinary excretion of phenolic metabolites after intake of the GCPE nutraceutical. To be noted: for Urinary excretion / Cumulative urinary excretion, Total 0–24 h: urine; for Cumulative urinary excretion, Total 0–24 h: mean ± SEM, n = 9.

Several values for one entry are separate records, joined by “and”; a condition that tells them apart may be missing. Equal entries are not always repeated.

In the case of `O=C(CCc1ccc(O)c(O)c1)OC1CC(O)(C(=O)O)CC(O)C1O` (stereo not drawn) [3-Dihydrocaffeoylquinic acid], the Urinary excretion (week 0) worked out at 0.35 µmol/24 h and the Urinary excretion (week 8) is 0.27 µmol/24 h. Also, the “Cumulative urinary excretion, Total 0–24 h” value (shortened to “Cumulative urinary excretion”) is, setting by setting: (week 0) 0.35 ± 0.07 µmol; (week 8) 0.27 ± 0.08 µmol. The Amount excreted in urine, 0- 3 h was found to be 0.06 ± 0.02 µmol (week 0, interval 0–3 h) and 0.025 ± 0.007 µmol (week 8, interval 0–3 h). The Amount excreted in urine, 3-6 h runs as follows: (week 0, interval 3–6 h) 0.033 ± 0.005 µmol; (week 8, interval 3–6 h) 0.019 ± 0.005 µmol. For the same compound, the Amount excreted in urine, 6-9 h (week 0, interval 6–9 h) was 0.05 ± 0.02 µmol and the Amount excreted in urine, 6-9 h (week 8, interval 6–9 h) was found to be 0.04 ± 0.01 µmol. Moreover, the Amount excreted in urine, 9-11 h by setting is: (week 0, interval 9–11 h) 0.04 ± 0.01 µmol; (week 8, interval 9–11 h) 0.03 ± 0.01 µmol. Besides, the Amount excreted in urine, 11-24 h runs as follows: (week 0, interval 11–24 h) 0.17 ± 0.04 µmol; (week 8, interval 11–24 h) 0.15 ± 0.06 µmol.

Turning to Dihydrocoumaroylquinic acid, the Urinary excretion runs as follows: (week 0) 0.22 µmol/24 h; (week 8) 0.17 µmol/24 h. In addition, the Amount excreted in urine, 11-24 h by setting is: (week 0, interval 11–24 h) 0.12 µmol and 0.14 µmol; (week 8, interval 11–24 h) 0.09 µmol and 0.12 µmol. In addition, the Amount excreted in urine, 0- 3 h (week 8, interval 0–3 h) is 0.03 µmol and 0.017 µmol. Also, the Amount excreted in urine, 3-6 h (week 8, interval 3–6 h) was 0.009 µmol and 0.01 µmol.

`O=C(O)CCc1ccc(O)c(OS(=O)(=O)O)c1` [DHCA-3′-sulfate, 3-(4′-Hydroxyphenyl)propanoic acid-3′-sulfate]: the “Cumulative urinary excretion” value is, setting by setting: (week 0) 9 ± 2 µmol; (week 8) 9 ± 3 µmol. Besides, the Amount excreted in urine, 0- 3 h (week 0, interval 0–3 h) is 0.32 ± 0.07 µmol and the Amount excreted in urine, 0- 3 h (week 8, interval 0–3 h) was determined as 0.7 ± 0.2 µmol. Moreover, the Amount excreted in urine, 3-6 h by setting is: (week 0, interval 3–6 h) 0.26 ± 0.07 µmol; (week 8, interval 3–6 h) 0.6 ± 0.2 µmol. Also, the Amount excreted in urine, 6-9 h stood at 2.5 ± 0.9 µmol (week 0, interval 6–9 h) and 2.5 ± 0.6 µmol (week 8, interval 6–9 h). Moreover, the Amount excreted in urine, 9-11 h reads like this: (week 0, interval 9–11 h) 2 ± 0.7 µmol; (week 8, interval 9–11 h) 3 ± 1 µmol. In addition, the Amount excreted in urine, 11-24 h (week 0, interval 11–24 h) was 4 ± 1 µmol and the Amount excreted in urine, 11-24 h (week 8, interval 11–24 h) worked out at 2 ± 1 µmol.

In the case of `O=C(O)CCc1ccc(O)c(O[C@@H]2O[C@H](C(=O)O)[C@@H](O)[C@H](O)[C@H]2O)c1` [DHCA-3′-glucuronide, 3-(4′-Hydroxyphenyl)propanoic acid-3′-glucuronide], the “Cumulative urinary excretion” value runs as follows: (week 0) 0.6 ± 0.2 µmol; (week 8) 0.5 ± 0.1 µmol. Besides, the Amount excreted in urine, 0- 3 h runs as follows: (week 0, interval 0–3 h) 0.09 ± 0.03 µmol; (week 8, interval 0–3 h) 0.11 ± 0.04 µmol. In addition, the Amount excreted in urine, 3-6 h came to 0.07 ± 0.02 µmol (week 0, interval 3–6 h) and 0.06 ± 0.02 µmol (week 8, interval 3–6 h). For the same compound, the Amount excreted in urine, 6-9 h runs as follows: (week 0, interval 6–9 h) 0.08 ± 0.04 µmol; (week 8, interval 6–9 h) 0.08 ± 0.02 µmol. Besides, the Amount excreted in urine, 9-11 h (week 0, interval 9–11 h) amounted to 0.04 ± 0.02 µmol. The Amount excreted in urine, 11-24 h came out at 0.3 ± 0.09 µmol (week 0, interval 11–24 h) and 0.2 ± 0.06 µmol (week 8, interval 11–24 h).

Take `O=C(/C=C/c1ccc(O)c(O)c1)OC1[C@H](O)CC(O)(C(=O)O)C[C@H]1O` (stereo partly drawn) [4-Caffeoylquinic acid]: the “Cumulative urinary excretion” value is 0.13 ± 0.07 µmol (week 0) and 0.15 ± 0.07 µmol (week 8). The Amount excreted in urine, 6-9 h runs as follows: (week 0, interval 6–9 h) 0.03 ± 0.02 µmol; (week 8, interval 6–9 h) 0.06 ± 0.03 µmol. Besides, the Amount excreted in urine, 9-11 h by setting is: (week 0, interval 9–11 h) 0.05 ± 0.04 µmol; (week 8, interval 9–11 h) 0.05 ± 0.03 µmol. Moreover, the Amount excreted in urine, 11-24 h is, setting by setting: (week 0, interval 11–24 h) 0.05 ± 0.02 µmol; (week 8, interval 11–24 h) 0.02 ± 0.01 µmol. The Amount excreted in urine, 0- 3 h (week 8, interval 0–3 h) was 0.01 ± 0.01 µmol. Besides, for the setting “week 8, interval 3–6 h”, the Amount excreted in urine, 3-6 h worked out at 0.008 ± 0.005 µmol.

With `O=C(O)CCc1ccc(OS(=O)(=O)O)cc1` [DHCoA-4′-sulfate, 3-(Phenyl)propanoic acid-4′-sulfate], the “Cumulative urinary excretion” value by setting is: (week 0) 21 ± 6 µmol; (week 8) 21 ± 4 µmol. The Amount excreted in urine, 0- 3 h (week 0, interval 0–3 h) was determined as 0.9 ± 0.4 µmol and the Amount excreted in urine, 0- 3 h (week 8, interval 0–3 h) is 2 ± 0.8 µmol. Moreover, the Amount excreted in urine, 3-6 h was 0.7 ± 0.1 µmol (week 0, interval 3–6 h) and 1.5 ± 0.5 µmol (week 8, interval 3–6 h). Further, the Amount excreted in urine, 6-9 h runs as follows: (week 0, interval 6–9 h) 3 ± 1 µmol; (week 8, interval 6–9 h) 5 ± 2 µmol. Also, the Amount excreted in urine, 9-11 h worked out at 3 ± 1 µmol (week 0, interval 9–11 h) and 5 ± 2 µmol (week 8, interval 9–11 h). Also, the Amount excreted in urine, 11-24 h was 12 ± 4 µmol (week 0, interval 11–24 h) and 7 ± 3 µmol (week 8, interval 11–24 h).

In the case of `COc1cc(CCC(=O)OC2CC(O)(C(=O)O)CC(O)C2O)ccc1O` (stereo not drawn) [3-Dihydroferuloylquinic acid], the “Cumulative urinary excretion” value (week 0) was found to be 0.3 ± 0.1 µmol and the “Cumulative urinary excretion” value (week 8) is reported as 0.5 ± 0.07 µmol. Further, the Amount excreted in urine, 0- 3 h worked out at 0.05 ± 0.01 µmol (week 0, interval 0–3 h) and 0.11 ± 0.02 µmol (week 8, interval 0–3 h). The Amount excreted in urine, 3-6 h reads like this: (week 0, interval 3–6 h) 0.034 ± 0.006 µmol; (week 8, interval 3–6 h) 0.062 ± 0.008 µmol. In addition, the Amount excreted in urine, 6-9 h worked out at 0.029 ± 0.006 µmol (week 0, interval 6–9 h) and 0.08 ± 0.01 µmol (week 8, interval 6–9 h). Moreover, the Amount excreted in urine, 9-11 h is 0.019 ± 0.005 µmol (week 0, interval 9–11 h) and 0.08 ± 0.02 µmol (week 8, interval 9–11 h). Moreover, the Amount excreted in urine, 11-24 h by setting is: (week 0, interval 11–24 h) 0.16 ± 0.09 µmol; (week 8, interval 11–24 h) 0.14 ± 0.02 µmol.

As to Coumaroylquinic acid, the “Cumulative urinary excretion” value is given as 0.14 ± 0.03 µmol (week 0); 0.14 µmol (week 0, listed as coumaroylquinic acid); 0.10 ± 0.02 µmol (week 8); 0.10 µmol (week 8, listed as coumaroylquinic acid). The Amount excreted in urine, 0- 3 h worked out at 0.03 ± 0.01 µmol (week 0, interval 0–3 h) and 0.009 ± 0.003 µmol (week 8, interval 0–3 h). For the same compound, the Amount excreted in urine, 3-6 h (week 0, interval 3–6 h) was determined as 0.015 ± 0.003 µmol. In addition, the Amount excreted in urine, 6-9 h reads like this: (week 0, interval 6–9 h) 0.017 ± 0.006 µmol; (week 8, interval 6–9 h) 0.014 ± 0.002 µmol. In addition, the Amount excreted in urine, 9-11 h reads like this: (week 0, interval 9–11 h) 0.015 ± 0.004 µmol; (week 8, interval 9–11 h) 0.012 ± 0.004 µmol. In addition, the Amount excreted in urine, 11-24 h was determined as 0.06 ± 0.02 µmol (week 0, interval 11–24 h) and 0.06 ± 0.02 µmol (week 8, interval 11–24 h).

Take `COc1ccc(C=CC(=O)O)cc1OS(=O)(=O)O` [iFA-3′-sulfate, 4′-Methoxycinnamic acid-3′-sulfate]: the “Cumulative urinary excretion” value is recorded as 1.1 ± 0.3 µmol (week 0) and 2.1 ± 0.9 µmol (week 8). For the same compound, the Amount excreted in urine, 0- 3 h worked out at 0.4 ± 0.1 µmol (week 0, interval 0–3 h) and 0.34 ± 0.07 µmol (week 8, interval 0–3 h). The Amount excreted in urine, 3-6 h is, setting by setting: (week 0, interval 3–6 h) 0.07 ± 0.04 µmol; (week 8, interval 3–6 h) 0.1 ± 0.03 µmol. Besides, the Amount excreted in urine, 6-9 h (week 0, interval 6–9 h) turned out to be 0.24 ± 0.08 µmol and the Amount excreted in urine, 6-9 h (week 8, interval 6–9 h) was 0.32 ± 0.06 µmol. Also, the Amount excreted in urine, 9-11 h runs as follows: (week 0, interval 9–11 h) 0.09 ± 0.03 µmol; (week 8, interval 9–11 h) 0.3 ± 0.1 µmol. For the same compound, the Amount excreted in urine, 11-24 h stood at 0.4 ± 0.1 µmol (week 0, interval 11–24 h) and 1 ± 0.7 µmol (week 8, interval 11–24 h).

For `COc1ccc(/C=C/C(=O)NCC(=O)O)cc1O` [IsoFeruloylglicine], the “Cumulative urinary excretion” value by setting is: (week 0) 0.44 ± 0.04 µmol; (week 8) 0.6 ± 0.1 µmol. Also, the Amount excreted in urine, 0- 3 h by setting is: (week 0, interval 0–3 h) 0.04 ± 0.01 µmol; (week 8, interval 0–3 h) 0.13 ± 0.05 µmol. Also, the Amount excreted in urine, 3-6 h runs as follows: (week 0, interval 3–6 h) 0.035 ± 0.009 µmol; (week 8, interval 3–6 h) 0.1 ± 0.02 µmol. Also, the Amount excreted in urine, 6-9 h turned out to be 0.08 ± 0.02 µmol (week 0, interval 6–9 h) and 0.12 ± 0.04 µmol (week 8, interval 6–9 h). The Amount excreted in urine, 9-11 h worked out at 0.11 ± 0.01 µmol (week 0, interval 9–11 h) and 0.06 ± 0.02 µmol (week 8, interval 9–11 h). Besides, the Amount excreted in urine, 11-24 h amounted to 0.16 ± 0.03 µmol (week 0, interval 11–24 h) and 0.17 ± 0.05 µmol (week 8, interval 11–24 h).
